Among the data in patent EP3478687B1 (Daewoong Pharmaceutical Co., Ltd., priority 2016, dated 2018) are IC50 values, retold here.

Experiment [1] addresses T1, Recombinant purified human BTK (Homo sapiens, UniProt Q06187).
T1 construct: purchased Promega V9071
Description: BTK kinase inhibitory activity, ADP-Glo kinase assay (Promega V9071). To be noted: ATP 10 uM, 8 ng BTK per reaction, 1 hour 30 °C, chemiluminescence. In kind it is biochemical. In a few lines:
(§1)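 Recombinant human kinases in Tris pH 7.5 buffer with MgCl2, BSA and DTT (MnCl2 added for BTK), 4 ng JAK3 or 8 ng BTK per reaction. Poly(Glu4,Tyr1) 0.2 µg/µL with 5 µM (JAK3) or 10 µM (BTK) ATP, 1% DMSO, 1 h at 30 °C. ADP-Glo luminescence used to derive IC50.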
For orientation: ADP-Glo first removes unused ATP, then detects ADP through luciferase.

Experiment [2] addresses T2, Recombinant purified human JAK3 (Homo sapiens, UniProt P52333).
T2 construct: purchased Promega V9441
T2 sequence (P52333 1-1124): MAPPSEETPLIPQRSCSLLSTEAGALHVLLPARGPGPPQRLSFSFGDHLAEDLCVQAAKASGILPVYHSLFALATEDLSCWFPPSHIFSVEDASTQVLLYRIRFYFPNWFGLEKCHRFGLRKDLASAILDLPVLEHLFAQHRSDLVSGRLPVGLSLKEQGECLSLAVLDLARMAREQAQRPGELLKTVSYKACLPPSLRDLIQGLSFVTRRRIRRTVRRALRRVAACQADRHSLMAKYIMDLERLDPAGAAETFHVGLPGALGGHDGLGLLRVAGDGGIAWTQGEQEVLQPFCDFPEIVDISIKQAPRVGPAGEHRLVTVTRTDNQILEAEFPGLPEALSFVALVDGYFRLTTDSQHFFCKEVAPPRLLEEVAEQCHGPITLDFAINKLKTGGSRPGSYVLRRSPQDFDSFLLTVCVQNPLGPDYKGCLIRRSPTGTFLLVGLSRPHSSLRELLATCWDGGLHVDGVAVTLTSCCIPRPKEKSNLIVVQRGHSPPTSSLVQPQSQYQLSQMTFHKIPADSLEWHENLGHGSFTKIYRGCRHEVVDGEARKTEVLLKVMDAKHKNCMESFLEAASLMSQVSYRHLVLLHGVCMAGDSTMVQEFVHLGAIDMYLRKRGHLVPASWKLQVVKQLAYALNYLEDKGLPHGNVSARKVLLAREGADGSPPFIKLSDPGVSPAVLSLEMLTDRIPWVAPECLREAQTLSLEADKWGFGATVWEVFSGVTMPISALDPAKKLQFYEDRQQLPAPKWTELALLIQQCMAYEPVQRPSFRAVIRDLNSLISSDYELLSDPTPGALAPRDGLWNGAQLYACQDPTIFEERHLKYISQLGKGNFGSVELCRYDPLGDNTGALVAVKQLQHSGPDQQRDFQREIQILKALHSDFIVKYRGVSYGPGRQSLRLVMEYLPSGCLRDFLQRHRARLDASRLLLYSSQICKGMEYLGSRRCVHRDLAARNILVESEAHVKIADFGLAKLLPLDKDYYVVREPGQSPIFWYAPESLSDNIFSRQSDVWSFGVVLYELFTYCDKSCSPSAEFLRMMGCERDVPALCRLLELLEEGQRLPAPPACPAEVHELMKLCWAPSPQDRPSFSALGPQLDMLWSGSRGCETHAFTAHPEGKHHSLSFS
As to the kind of experiment: JAK3 kinase inhibitory activity, ADP-Glo kinase assay (Promega V9441). Format: biochemical. The following applies: ATP 5 uM, 4 ng JAK3 per reaction, 1 hour 30 °C, chemiluminescence. In a few lines:
as §1

T1 sequence (Q06187 whole entry): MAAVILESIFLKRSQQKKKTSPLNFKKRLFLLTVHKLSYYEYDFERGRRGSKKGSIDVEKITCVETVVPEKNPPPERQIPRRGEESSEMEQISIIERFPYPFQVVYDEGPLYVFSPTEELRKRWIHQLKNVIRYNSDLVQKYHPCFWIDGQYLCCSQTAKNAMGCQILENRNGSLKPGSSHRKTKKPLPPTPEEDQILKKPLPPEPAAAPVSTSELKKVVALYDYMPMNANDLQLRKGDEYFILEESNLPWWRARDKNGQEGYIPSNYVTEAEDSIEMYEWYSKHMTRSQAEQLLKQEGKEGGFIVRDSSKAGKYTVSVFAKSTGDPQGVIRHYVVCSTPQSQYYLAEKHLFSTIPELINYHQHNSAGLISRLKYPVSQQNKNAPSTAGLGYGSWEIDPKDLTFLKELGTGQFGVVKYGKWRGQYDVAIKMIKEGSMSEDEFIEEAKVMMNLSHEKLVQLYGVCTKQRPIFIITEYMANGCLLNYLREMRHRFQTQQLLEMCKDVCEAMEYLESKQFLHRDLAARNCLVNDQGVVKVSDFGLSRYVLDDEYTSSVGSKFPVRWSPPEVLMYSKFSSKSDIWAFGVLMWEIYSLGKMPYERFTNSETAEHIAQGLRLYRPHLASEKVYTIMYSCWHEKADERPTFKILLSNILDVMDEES

`C=CC(=O)N1CCC[C@@H](N(C)c2nc(Nc3cnn(CC)c3)nc3[nH]ccc23)C1` [Example 101, (R)-1-(3-((2-((1-ethyl-1H-pyrazol-4-yl)amino)-7H-pyrrolo[2,3-d]pyrimidin-4-yl)(methyl)amino)piperidin-1-yl)prop-2-en-1-one]: the IC50 – broadly, the concentration that inhibits the measured activity by half – turned out to be 7.4 nM in experiment [1] and 1.8 nM in experiment [2].
The like results for `C=CC(=O)N1CCC[C@@H](N(C)c2nc(Nc3cnoc3)nc3[nH]ccc23)C1` [Example 102] were, in that order, 146 nM and 13.2 nM.
For `C=CC(=O)N1CCC[C@@H](N(C)c2nc(Nc3cnn(CC(F)F)c3)nc3[nH]ccc23)C1` [Example 103, (R)-1-(3-((2-((1-(2,2-difluoroethyl)-1H-pyrazol-4-yl)amino)-7H-pyrrolo[2,3-d]pyrimidin-4-yl)(methyl)amino)piperidin-1-yl)prop-2-en-1-one], the IC50 was 21 nM in experiment [1] and 1.3 nM in experiment [2].
The like results for `C=CC(=O)N1CCC[C@@H](Sc2nc(Nc3cnn(CC)c3)nc3[nH]ccc23)C1` [Example 104, (R)-1-(3-((2-((1-ethyl-1H-pyrazol-4-yl)amino)-7H-pyrrolo[2,3-d]pyrimidin-4-yl)thio)piperidin-1-yl)prop-2-en-1-one] were, in that order, 2.7 nM and 0.3 nM.
On the same counts, the results for `C=CC(=O)N1CCC[C@@H](Sc2nc(Nc3cnn(CC)c3)nc3[nH]ncc23)C1` [Example 105, (R)-1-(3-((6-((1-ethyl-1H-pyrazol-4-yl)amino)-1H-pyrazolo [3,4-d]pyrimidin-4-yl)thio)piperidin-1-yl)prop-2-en-1-one] are 1.9 nM and 3.6 nM.
With `C=CC(=O)N1CC[C@@H](C)[C@@H](Nc2nc(Nc3cnn(CC)c3)nc3[nH]ncc23)C1` [Example 106, 1-((3R,4R)-3-((6-((1-ethyl-1H-pyrazol-4-yl)amino)-1H-pyrazolo [3,4-d]pyrimidin-4-yl)amino)-4-methylpiperidin-1-yl)prop-2-en-1-one], the IC50 in experiment [1] turned out to be 1.8 nM; in experiment [2] it was 54.8 nM.
For the compound `C=CC(=O)N1CCC[C@@H](Sc2nc(Nc3cnn(CC(F)F)c3)nc3[nH]nc(Cl)c23)C1` [Example 108], the figures for the IC50 in experiment [1] and in experiment [2] were 1.3 nM and 0.6 nM, respectively.
On the same counts, the results for `C=CC(=O)N1CCC[C@@H](Sc2nc(Nc3cnn(C4CC4)c3)nc3[nH]nc(Cl)c23)C1` [Example 110] are 1.4 nM and 1.7 nM.
On the same counts, the results for `C=CC(=O)N1CCC[C@@H](Sc2nc(Nc3cnn(CC)c3)nc3[nH]nc(Cl)c23)C1` [Example 111, (R)-1-(3-((3-chloro-6-((1-ethyl-1H-pyrazol-4-yl)amino)-1H-pyrazolo[3,4-d]pyrimidin-4-yl)thio)piperidin-1-yl)prop-2-en-1-one] are 1.3 nM and 1.1 nM.
In the case of `C=CC(=O)N1CCC[C@@H](Sc2nc(Nc3cnn(C(C)(C)C)c3)nc3[nH]nc(Cl)c23)C1` [Example 112, (R)-1-(3-((6-((1-(tert-butyl)-1H-pyrazol-4-yl)amino)-3-chloro-1H-pyrazolo [3,4-d]pyrimidin-4-yl)thio)piperidin-1-yl)prop-2-en-1-one], the IC50 in experiment [1] was 1.8 nM; in experiment [2], 1.6 nM.
On the same counts, the results for `C=CC(=O)N1CCC[C@@H](Sc2nc(Nc3cnn(CC(C)C)c3)nc3[nH]nc(Cl)c23)C1` [Example 113, (R)-1-(3-((3-chloro-6-((1-isobutyl-1H-pyrazol-4-yl)amino)-1H-pyrazolo[3,4-d]pyrimidin-4-yl)thio)piperidin-1-yl)prop-2-en-1-one] are 2.3 nM and 2.8 nM.
The like results for `C=CC(=O)N1CCC[C@@H](Sc2nc(Nc3cnn(CC(F)(F)F)c3)nc3[nH]nc(Cl)c23)C1` [Example 114, (R)-1-(3-((3-chloro-6-((1-(2,2,2-trifluoroethyl)-1H-pyrazol-4-yl)amino)-1H-pyrazolo [3,4-d]pyrimidin-4-yl)thio)piperidin-1-yl)prop-2-en-1-one] were, in that order, 2.3 nM and 0.9 nM.
The like results for `C=CC(=O)N1CCC[C@@H](Sc2nc(Nc3cnn(CCC)c3)nc3[nH]nc(Cl)c23)C1` [Example 115, (R)-1-(3-((3-chloro-6-((1-propyl-1H-pyrazol-4-yl)amino)-1H-pyrazolo[3,4-d]pyrimidin-4-yl)thio)piperidin-1-yl)prop-2-en-1-one] were, in that order, 2 nM and 1.7 nM.
`C=CC(=O)N1CCC[C@@H](Sc2nc(Nc3cnoc3)nc3[nH]nc(Cl)c23)C1` [Example 116, (R)-1-(3-((3-chloro-6-(isoxazol-4-ylamino)-1H-pyrazolo [3,4-d]pyrimidin-4-yl)thio)piperidin-1-yl)prop-2-en-1-one]: the IC50 in experiment [1] was determined as 25.3 nM; in experiment [2], 19.5 nM.
On the same counts, the results for `C=CC(=O)N1CCC[C@@H](Nc2nc(Nc3cnoc3C)nc3[nH]nc(Cl)c23)C1` [Example 117] are 81.2 nM and more than 400 nM.
On the same counts, the results for `C=CC(=O)N1CCC[C@@H](N(C)c2nc(Nc3cnn(CC)c3)nc3[nH]nc(Cl)c23)C1` [Example 118, (R)-1-(3-((3-chloro-6-((1-ethyl-1H-pyrazol-4-yl)amino)-1H-pyrazolo[3,4-d]pyrimidin-4-yl)(methyl)amino)piperidin-1-yl)prop-2-en-1-one] are 1.3 nM and 3.2 nM.
On the same counts, the results for `C=CC(=O)N1CCC[C@@H](N(C)c2nc(Nc3cnoc3)nc3[nH]nc(Cl)c23)C1` [Example 119] are 11.1 nM and 32.5 nM.
Consider `C=CC(=O)N1CC[C@@H](C)[C@@H](Nc2nc(Nc3cnn(CC(F)(F)F)c3)nc3[nH]nc(Cl)c23)C1` [Example 120, 1-((3R,4R)-3-((3-chloro-6-((1-(2,2,2-trifluoroethyl)-1H-pyrazol-4-yl)amino)-1H-pyrazolo[3,4-d]pyrimidin-4-yl)amino)-4-methylpiperidin-1-yl)prop-2-en-1-one], for which the IC50 in experiment [1] was 7.5 nM; in experiment [2], 7.8 nM.
On the same counts, the results for `C=CC(=O)N1CC[C@@H](C)[C@@H](Nc2nc(Nc3cnn(CCC)c3)nc3[nH]nc(Cl)c23)C1` [Example 121, 1-((3R,4R)-3-((3-chloro-6-((1-propyl-1H-pyrazol-4-yl)amino)-1H-pyrazolo[3,4-d]pyrimidin-4-yl)amino)-4-methylpiperidin-1-yl)prop-2-en-1-one] are 4.9 nM and 18 nM.
The like results for `C=CC(=O)N1CC[C@@H](C)[C@@H](Nc2nc(Nc3cnn(CCN(CC)CC)c3)nc3[nH]nc(Cl)c23)C1` [Example 122, 1-((3R,4R)-3-((3-chloro-6-((1-(2-(diethylamino)ethyl)-1H-pyrazol-4-yl)amino)-1H-pyrazolo[3,4-d]pyrimidin-4-yl)amino)-4-methylpiperidin-1-yl)prop-2-en-1-one] were, in that order, 6 nM and 8.1 nM.
Regarding `C=CC(=O)N1CC[C@@H](C)[C@@H](Nc2nc(Nc3cnn(CCN4CCOCC4)c3)nc3[nH]nc(Cl)c23)C1` [Example 123, 1-((3R,4R)-3-((3-chloro-6-((1-(2-morpholinoethyl)-1H-pyrazol-4-yl)amino)-1H-pyrazolo[3,4-d]pyrimidin-4-yl)amino)-4-methylpiperidin-1-yl)prop-2-en-1-one], the results for the IC50 in experiment [1] and in experiment [2] were 5.8 nM and 7.9 nM, respectively.
On the same counts, the results for `C=CC(=O)N1CC[C@@H](C)[C@@H](Nc2nc(Nc3cnn(CC(C)C)c3)nc3[nH]nc(Cl)c23)C1` [Example 124, 1-((3R,4R)-3-((3-chloro-6-((1-isobutyl-1H-pyrazol-4-yl)amino)-1H-pyrazolo[3,4-d]pyrimidin-4-yl)amino)-4-methylpiperidin-1-yl)prop-2-en-1-one] are 3.5 nM and 8.4 nM.
On the same counts, the results for `C=CC(=O)N1CC[C@@H](C)[C@@H](Nc2nc(Nc3cnn(Cc4cccc(OC)c4)c3)nc3[nH]nc(Cl)c23)C1` [Example 125, 1-((3R,4R)-3-((3-chloro-6-((1-(3-methoaybenzyl)-1H-pyrazol-4-yl)amino)-1H-pyrazolo[3,4-d]pyrimidin-4-yl)amino)-4-methylpiperidin-1-yl)prop-2-en-1-one] are 8.2 nM and 20.4 nM.
